Data from patent publication US7973024B2, “24-sulfoximine vitamin D3 compounds” (Cyctochroma Inc., priority 2002, dated 2011).

Key:
[1] = test system: normal human epidermal keratinocytes (NHEK); test: Human epidermal keratinocyte proliferation assay; assay type: cell-based; conditions: together with calcitriol, three days, [3H]-thymidine 18 h
Protocol: 1. HEK Cell Media • Supplemented KGM media with additional reagents provided in the bullet kit as per supplier's instructions. • Added calcium chloride to final concentration of 0.3 mM.
2. Calcitriol Dilutions • Stock: Calcitriol (1 mM)
3. Substrate Dilutions • Stock: substrate (0.1 mM)
1. Cell Culture • Thawed one vial of HEK cells containing at least 500 K, and divided into 5 25 cm^2 flasks with 5 ml HEK cell media. 24 h later, removed media and replenished with 5 ml fresh media. Changed media again 48 h later.
2. Preparation of Cell Suspension • On the day of the assay, washed the monolayer of HEK cells once with 1×PBS buffer (provided in reagent pack) and then trypsinized for 5 min at 37° C. Added trypsin neutralizing solution (provided in reagent pack). Collected cells into tube, centrifuged cells (500×g, 5 min) and resuspended in HEK cell media. Counted cells and adjusted density to 150,000 cells/ml. Diluted cells further 1:30 with HEK cell media.
2. Cell Plating • Added 150 μl of cell suspension to appropriately labelled wells of a 96-well plate. Incubated plate for 48 h at 37° C. in a humidified atmosphere containing 5% CO2 for adherence of cells to wells.
3. […]
4. Cell Harvesting and Counting • Added 0.2 μCi/well of [^3H]-thymidine in 20 μl of HEK cell media to each well. Incubated plates for 18 h at 37° C. in a humidified atmosphere containing 5% CO2. Aspirated media and washed with 1×PBS. Trypsinize-cells for 30 min at 37° C. in a humidified atmosphere containing 5% CO2. Harvested cells onto filter plates using Tomtec cell harvester as per manufacturer's instructions. Added 25 μl scintillation fluid per well. Measured radioactivity using a scintillation counter. All values were normalized for background.

SCC-25 cells = test: [3H]-thymidine proliferation assay with SCC-25 cells; assay type: cell-based; conditions: together with calcitriol, three days, [3H]-thymidine 6 h
Protocol: 1. Preparation of Cell Suspension • When SCC-25 cells were 70-80% confluent, aspirated media. Washed the cells with 1×PBS. Trypsinized with trypsin-EDTA from the plate, collected cells from the tissue culture flask, centrifuged (500×g, 5 min) and resuspended in media.
2. Cell Plating. • Counted the cells and adjusted the cell density to 10,000/ml. Added 200 μl per well in a 96 well plate. Incubated plate for 24 h at 37° C. in a humidified atmosphere plus 5% CO2. Aspirated used media and replaced with 150 μl per well with media.
3. Compound Addition. • Added 25 μl of 1α,25(OH)2D3 (final concentration 10^−6M, 10^−7 M, 10^−8 M, M, 10^−10 M, 10^−11 M) into each designated well. Added 25 μl of substrate (final concentration 10^−7 M, 5×10^−8 M, 10^−8 M or 10^−9 M) into each designated well. Incubated plates for 3 days at 37° C. in a humidified atmosphere plus 5% CO2.
4. ^3H-Thymidine Incorporation. • Added ^3H-thymidine at 0.02 μCi per well and incubated at 37° C. in a humidified atmosphere plus 5% CO2 for 6 h.
(§1) 5. Plate Harvesting. • Aspirated all media and washed cells with 1×PBS. Trypsinized cells for 30 min at 37° C. in a humidified atmosphere plus 5% CO2. Harvested cells onto a 96 well filter plate (Millipore) using a Tomtec Cell Harvestor, according to manufacturers instructions.
(§2) 6. Scintillation Counting. • Added 25 μl of scintillation fluid per well. Counted the plate using a scintillation counter.

CYP24 [2] = molecular target: T1, CYP24 (Homo sapiens, UniProt Q07973); test: In vitro test of ability to inhibit specifically CYP24 (standard protocol); assay type: cell-based; conditions: ketoconazole as control standard
T1 construct: expressed in transfected cells
T1 sequence (Q07973 36-514): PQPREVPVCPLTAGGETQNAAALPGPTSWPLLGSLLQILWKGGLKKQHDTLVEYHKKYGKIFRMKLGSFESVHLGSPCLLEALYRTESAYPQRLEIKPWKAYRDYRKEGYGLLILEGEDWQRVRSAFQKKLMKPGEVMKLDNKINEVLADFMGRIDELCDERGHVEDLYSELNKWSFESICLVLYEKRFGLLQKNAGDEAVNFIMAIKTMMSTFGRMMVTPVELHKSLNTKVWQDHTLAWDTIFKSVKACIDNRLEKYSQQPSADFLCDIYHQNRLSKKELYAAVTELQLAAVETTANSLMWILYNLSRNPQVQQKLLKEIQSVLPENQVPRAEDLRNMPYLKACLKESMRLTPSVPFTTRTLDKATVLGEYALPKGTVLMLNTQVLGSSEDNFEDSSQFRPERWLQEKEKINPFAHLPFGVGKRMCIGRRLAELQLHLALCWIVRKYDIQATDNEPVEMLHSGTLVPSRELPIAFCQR

MCF-7 cells = test: [3H]-thymidine proliferation assay with MCF-7 cells; assay type: cell-based; conditions: together with calcitriol, three days, [3H]-thymidine 6 h
Protocol: 1. Preparation of Cell Suspension • When MCF-7 cells were 70-80% confluent, aspirated growth media. Washed the cells with 1×PBS. Trypsinized with trypsin-EDTA from the plate, collected cells from the tissue culture flask, centrifuged (500×g, 5 min) and resuspended in growth media.
2. Cell Plating. • Counted the cells and adjusted the cell density to 25,000/ml. Added 200 μl per well in a 96 well plate. Incubated plate for 24 h at 37° C. in a humidified atmosphere plus 5% CO2. Aspirated used media and replaced with 150 μl per well with proliferation media.
3. Substrate Addition. • Added 25 μl of 1α,25(OH)2D3 (final concentration 10^−6 M, 10^−7 M, 10^−8 M, 10^−9 M, 10^−10 M, 10^−11 M) into each designated well. Added 25 μl of substrate (final concentration 10^−7 M, 5×10^−8 M, 10^−8 M or 10^−9 M) into each designated well. Incubated plates for 3 days at 37° C. in a humidified atmosphere plus 5% CO2.
4. ^3H-Thymidine incorporation. • Added ^3H-thymidine at 0.02 μCi per well and incubated at 37° C. in a humidified atmosphere plus 5% CO2 for 6 h.
as §1, §2

CYP24 [3] = molecular target: T1, CYP24; test: CYP24 enzyme assay (stable cell line V79-CYP24 cells); assay type: cell-based; conditions: [3H-1β]-1α,25(OH)2D3 20 nM, 2 hours
Protocol: 1. Preparation of Cell Suspension • On the day of the assay, washed the monolayer of V79-CYP24 cells once with 1×PBS buffer and then trypsinize for 5 min at room temperature (approx. 22° C.). Added 1×PBS. Collected cells into tube, centrifuged cells (500×g, 5 min) and resuspended in DMEM+1% BSA media.
2. Cell Plating • Added 150 μl of cell suspension to appropriately labelled wells of a 48-well plate. Incubated plate for 30 minutes at 37° C. in a humidified atmosphere containing 5% CO2 for adherence of cells to wells.
3. Compound Addition • Added 25 μl of inhibitor (10^−6 to 10^−9 M) and then after 10 min added 25 μl of substrate [^3H-1β]-1α,25(OH)2D3 (20 nM) for 2 hours at 37° C. in a humidified atmosphere containing 5% CO2. Both inhibitor and substrate were prepared in DMEM with 1% BSA media in the absence and presence of 100 μM DPPD.
4. Lipid Extraction and Counting • Added 500 μL of methanol to stop the reaction. Transferred to tube. Added 250 μl of dichloromethane and vortexed. Added 250 μl of dichloromethane and 250 μl of saturated KCL and vortexed. Centrifuged at 4000 rpm for 5 min. Triplicate 100 μl aliquots of aqueous fraction were mixed with 600 μl of scintillation fluid and the radioactivity was measured using a scintillation counter. All values were normalized for background. (iii) Results.

VDR = molecular target: T2, VDR (Homo sapiens, UniProt P11473); test: VDR binding assay; conditions: B50: displacement of 50 percent [3H]-1,25(OH)2D3 from human recombinant VDR
T2 construct: purchased Biomol
T2 sequence (P11473 1-427): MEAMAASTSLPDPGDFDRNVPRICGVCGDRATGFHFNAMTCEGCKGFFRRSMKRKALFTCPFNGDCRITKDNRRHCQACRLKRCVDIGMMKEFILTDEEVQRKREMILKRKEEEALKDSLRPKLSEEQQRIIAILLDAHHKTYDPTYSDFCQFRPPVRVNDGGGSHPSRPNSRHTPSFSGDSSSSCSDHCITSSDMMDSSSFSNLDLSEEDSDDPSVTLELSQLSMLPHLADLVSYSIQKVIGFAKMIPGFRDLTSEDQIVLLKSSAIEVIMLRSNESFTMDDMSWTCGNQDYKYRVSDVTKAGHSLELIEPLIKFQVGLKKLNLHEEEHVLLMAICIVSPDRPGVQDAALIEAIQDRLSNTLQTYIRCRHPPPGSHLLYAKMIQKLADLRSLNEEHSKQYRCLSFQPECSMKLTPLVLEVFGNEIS
Protocol: 1. VDR 9.4 pmol/μl (human, recombinant, Biomol).
4. TEK300 • Tris-HCI 50 mM • EDTA 1.5 mM • KCI 300 mM Adjust pH to 7.4 (25° C.)
3. Preparation of 1.25(OH)2D3 and test compounds in ethanol
1 μl stock VDR in 2.5 ml TEDK300/Gelatin solution (500 μl/tube), (keep on ice)
• Label tubes according to the following chart, each in triplicate:
• Mixed all tubes via vortex and incubated at room temperature for 1 hour. Added 10 μL of 3H-1,25(OH)2D3 Working Dilution, mixed by vortex and incubated at room temperature for 1 hour 2. Sample processing • Thirty minutes before addition, put Charcoal/Dextran Solution on ice with continuous mixing. Added […] of Charcoal/Dextran Solution to each tube, mixed well and incubated on ice for 30 minutes. Centrifuged @ 2000 rpm for 10 minutes at 4° C. 3. Counting • Pipetted 100 μL of the upper, aqueous phase to a 24 well scintillation counting plate and added 600 μL scintillation fluid per well, covered and mixed well. Counted the plate using a scintillation counter for 5 min/sample. (iv) Calculations: • The amount of 1,25(OH)2D3 to displace 50 percent [^3H]-1,25(OH)2D3 from VDR was calculated as B50 for 1,25(OH)2D3. The VDR binding of other compounds was calculated as B50 relative to a value of 1 for 1,25(OH)2D3.

Row | SMILES | selective inhibition of CYP24 (CYP24 [2]) | IC50 (CYP24 [3]) [nM] | IC50 (VDR) [nM] | inhibition of proliferation of normal human epidermal keratinocytes (NHEK) [1] | inhibition of proliferation of SCC-25 cells (SCC-25 cells) | inhibition of proliferation of MCF-7 cells (MCF-7 cells)
1 | C=C1/C(=C\C=C2/CCC[C@]3(C)[C@@H]([C@H](C)/C=C/S(=N)(=O)c4ccccc4)CC[C@@H]23)C[C@@H](O)C[C@@H]1O (stereo partly shown) [I(r)] | selectively inhibit |  |  |  |  | 
2 | C=C1/C(=C\C=C2/CCC[C@]3(C)[C@@H]([C@H](C)CCS(=N)(=O)c4ccc(F)cc4)CC[C@@H]23)C[C@@H](O)C[C@@H]1O (single isomer, unassigned) [I(q)] | selectively inhibit | 78 |  |  |  | 
3 | C=C1/C(=C\C=C2/CCC[C@]3(C)[C@@H]([C@@H](C)/C=C/S(=N)(=O)c4ccccc4)CC[C@@H]23)C[C@@H](O)C[C@@H]1O (stereo partly shown) [I(s)] | selectively inhibit | 580 |  |  |  | 
4 | CN=S(=O)(CC[C@@H](C)[C@H]1CC[C@H]2/C(=C/C=C3C[C@@H](O)C[C@H](O)C3)CCC[C@]12C)c1ccccc1 (single isomer, unassigned) [I(k), 24-Phenyl N-Methyl Sulfoximine 19-Nor-Vitamin-D3] | selectively inhibit | 300 | > 2000 |  |  | 
5 | C=C1CC[C@H](O)C/C1=C/C=C1\CCC[C@]2(C)[C@@H]([C@H](C)CCS(=N)(=O)c3ccccc3)CC[C@@H]12 (stereo partly shown) [I(m), 24-Phenyl Sulfoximine 1-Nor Vitamin-D3] | selectively inhibit | 120 | > 2000 |  |  | 

More lines, in order of falling IC50 (CYP24 [3]), values ahead:

Row | selective inhibition of CYP24 (CYP24 [2]) | IC50 (CYP24 [3]) [nM] | IC50 (VDR) [nM] | SMILES | inhibition of proliferation of normal human epidermal keratinocytes (NHEK) [1] | inhibition of proliferation of SCC-25 cells (SCC-25 cells) | inhibition of proliferation of MCF-7 cells (MCF-7 cells)
6 | selectively inhibit | 42 |  | C=C1/C(=C\C=C2/CCC[C@]3(C)[C@@H]([C@H](C)CCS(=N)(=O)c4ccc(F)cc4)CC[C@@H]23)C[C@@H](O)C[C@@H]1O (single isomer, unassigned) [I(p)] |  |  | 
7 | selectively inhibit | 42 |  | CN=S(=O)(CC[C@@H](C)[C@H]1CC[C@H]2/C(=C/C=C3C[C@@H](O)C[C@H](O)C3)CCC[C@]12C)c1ccccc1 (single isomer, unassigned) [I(l), 24-Phenyl N-Methyl Sulfoximine 19-Nor-Vitamin-D3] |  | act to inhibit the proliferation | 
8 | selectively inhibit | 27 |  | C[C@H](CCS(=N)(=O)c1ccccc1)[C@H]1CC[C@H]2/C(=C/C=C3C[C@@H](O)C[C@H](O)C3)CCC[C@]12C (single isomer, unassigned) [I(j), 24 Phenyl Sulfoximine 19-Nor-Vitamin-D3] |  | act to inhibit the proliferation | 
9 | selectively inhibit | 23 |  | C=C1/C(=C\C=C2/CCC[C@]3(C)[C@@H]([C@H](C)CC4(S(=N)(=O)c5ccccc5)CC4)CC[C@@H]23)C[C@@H](O)C[C@@H]1O (single isomer, unassigned) [I(n)] | act to inhibit the proliferation | act to inhibit the proliferation | act to inhibit the proliferation
10 | selectively inhibit | 20 |  | C=C1/C(=C\C=C2/CCC[C@]3(C)[C@@H]([C@H](C)CC4(S(=N)(=O)c5ccccc5)CC4)CC[C@@H]23)C[C@@H](O)C[C@@H]1O (single isomer, unassigned) [I(o)] | act to inhibit the proliferation | act to inhibit the proliferation | 
